The results in this text go back to US5543426A, “Use of certain 3,7-disubstituted indole compounds for treating depression or cognitive disorders” (priority 1990, dated 1996).

One test concerns gastric emptying in rats. Kind of test: gastric emptying of glass spheres in rats. It counts as in vivo. As to conditions: Rattus norvegicus, ip, given 15 min before 25 glass spheres, emptying measured 5, 10, 15 and 30 min after, read-out: ED50, promoting effect on gastric emptying. The protocol: 2. their promoting effect on gastric emptying in rats as indicated in standard in vivo tests when administered i.p. at doses of about 0.01 to about 1 mg/kg. The compounds to be tested are administered 15 min. before the administration of 25 glass spheres and gastric emptying is measured 5, 10, 15 and 30 min. after administration of the spheres. Example compound has an ED50 of 0.2 mg/kg i.p.

The next test addresses T1, 5-HT3 binding sites (Mus musculus, UniProt P23979).
T1 construct: endogenous in cells; host or cells: N1E-115
Kind of test: binding to 5-HT3 binding sites, N1E-115 cells (method of Hoyer and Neijt). The text has this: 1. their potent and selective binding properties to 5-HT3 binding sites, e.g. to N1E-115 cells measured according to the method disclosed by D. Hoyer and H.C. Neijt, Mol. Pharm., 33, 303-309.

A further test deals with mice. As to the kind of experiment: social stress model: plasma corticosterone rise induced by an aggressive, inaccessible male mouse. It counts as in vivo. As to conditions: p.o., 0.1 to 1 mg/kg. The protocol:
The compounds of the invention also reduce the plasma corticosterone rise induced in mice by the presence of an aggressive, but inaccessible male mouse. Compounds of the invention when given p.o. for 14 days at a dosage of from about 0.1 to 10 mg/kg restore the plasma corticosterone level to normal.
The Example compound is preferred.

Another test relates to Benzold Jarisch Reflex. Kind of test: blockade of the Benzold Jarisch Reflex (method of Fozard). It counts as in vivo. Particulars: read-out: ID50, blockade of the Benzold Jarisch Reflex. As to the method:
Pharmacol., 326, 36-44 (1984). Example compound has an ID50 of 70 μg/kg.

T1 sequence (P23979 24-489): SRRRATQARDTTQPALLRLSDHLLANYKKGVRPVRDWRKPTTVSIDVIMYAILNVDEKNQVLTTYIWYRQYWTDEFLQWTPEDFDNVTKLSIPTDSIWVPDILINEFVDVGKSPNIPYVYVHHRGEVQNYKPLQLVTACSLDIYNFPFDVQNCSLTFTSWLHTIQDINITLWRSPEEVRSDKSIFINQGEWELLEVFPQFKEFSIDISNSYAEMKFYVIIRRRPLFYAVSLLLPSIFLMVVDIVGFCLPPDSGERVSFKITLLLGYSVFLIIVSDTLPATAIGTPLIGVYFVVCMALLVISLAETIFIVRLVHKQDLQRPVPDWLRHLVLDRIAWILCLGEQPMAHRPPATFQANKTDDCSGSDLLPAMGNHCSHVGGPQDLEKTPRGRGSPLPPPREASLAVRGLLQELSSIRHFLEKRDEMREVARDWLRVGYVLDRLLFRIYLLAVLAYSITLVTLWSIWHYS

Regarding `COc1cccc2c(C(=O)O[C@H]3C[C@H]4CC[C@@H](C3)N4C)c[nH]c12` [Example compound, 7-Methoxy-1H-indol-3-carboxylic acid-(1αH, 5αH)-8-methyl-8-aza-bicyclo3,2,1oct-3α-yl-ester], the ED50 in the test with gastric emptying in rats worked out at 0.2 mg/kg; in the test on Benzold Jarisch Reflex, 0.07 mg/kg. The molecule further had a Kd at 5-HT3 binding sites of 1.35 nM. Also, the “stress-induced corticosterone concentration in plasma” value in the test with mice is “reduces the stress-induced corticosterone concentration in plasma”.
